Two molecules from patent US10988465B2, “CXCR4 inhibitors and uses thereof” (X4 Pharmaceuticals, Inc., priority 2016, dated 2021) can be followed below.

Where two headings read alike, the source gives them in different places.

Data set [1] deals with T1, Jurkat cells expressing CXCR4 (Homo sapiens, UniProt P61073).
T1 construct: endogenous in cells; host or cells: Jurkat
Description: Chemokine (CXCL12-AF647) binding inhibition assay. To be noted: CXCL12-AF647 25 ng/mL, read-out: IC50 CXCL-12 binding Jurkat. Summed up: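 Cells in HBSS, 20 mM HEPES, 0.2% BSA, pH 7.4, preincubated 15 min at room temperature with compound, then 25 ng/mL CXCL12-AF647 for 30 min. After washing and paraformaldehyde fixation, bound ligand read by flow cytometry; percent inhibition calculated from MFI relative to unlabeled and ligand-only controls.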

Data set [2] in a line: Rat brain uptake assay: pharmacokinetics and brain penetration after IV-PO administration. The note with it: male, SD; for clearance / AUC(0-t) / bioavailability / half-life: Rat (3 mg/kg IV; 10 mg/kg, PO); for bioavailability: read-out: F % (oral bioavailability); for half-life: read-out: t½ (converted). It counts as in vivo, male SD rats. On the procedure: Example 39: Pharmacokinetics and Brain Penetration Experiment to Determine Brain and Plasma Concentration of Compounds after IV-PO Administration to Male SD Rats
The IV and PO dosing solutions were prepared in 50 mM citrate buffer (pH 4.0) at 2 mg/mL. The blood collection was performed as follows: the animal was restrained manually at the designated time points, approximately 150 μL of blood sample was collected via cardiac puncture vein into EDTA-2K tubes. The blood samples were maintained in wet ice first and centrifuged to obtain plasma (2000 g, 4° C., 5 min) within 15 minutes post sampling. The brain collection was performed as follows: a mid-line incision was made in the animal's scalp and the skin was retracted. Using small bone cutters and rongeurs, the skull overlying the brain was removed. The brain was removed using a spatula and rinsed with cold saline. The brain was placed in screw-top tubes and then stored under −70° C. until analysis. The CSF collection was performed as follows: the animal was euthanized under deep anesthesia with air bubble tail vein injection. The CSF was collected by direct puncture of butterfly needle into the cisterna magna, using the occipital bone and the wings of the atlas as landmarks. A piece of white paper was used as a background to monitor color change in the sample just above the needle during collection. Upon observation of color change, the PE tubing was quickly clamped off above the color change and cut just above the clamped site. The clear sample was drawn into the syringe.
An aliquot of 30 μL sample was added to 100 μL MeCN containing 100 ng/mL IS (Dexamethasone). The mixture was vortexed for 10 min and centrifuged at 5800 rpm for 10 min. An aliquot of 40 μL supernatant was added with 40 μl H2O and the mixture was vortexed for 5 min. An aliquot of 2 μL supernatant was injected for LC-MS/MS analysis.
The sample was homogenized with 3 volumes (v/w) of PBS. An aliquot of 30 μL sample was added with 100 μL MeCN containing 100 ng/mL IS (Dexamethasone). The mixture was vortexed for 10 min and centrifuged at 5800 rpm for 10 min. An aliquot of 40 μL supernatant was added with 40 μl H2O and the mixture was vortexed for 5 min. An aliquot of 2 μL supernatant was injected for LC-MS/MS analysis.
An aliquot of 10 μL sample was added to 10 μL MeOH/H2O (1/1) and 40 μL ACN containing 200 ng/mL IS (Dexamethasone) 120 μL H2O. The mixture was vortexed for 5 min. An aliquot of 2 μL supernatant was injected for LC-MS/MS analysis.
The sample analysis was performed on UPLC-MS/MS-02 (Triple Quad™ 4000) under the following conditions: positive ion, ESI, MRM detection using dexamethasone as internal standard. HPLC conditions: mobile phase A: H2O-0.1% FA, mobile phase B: MeCN-0.1% FA on ACQUITY UPLC HSS T3 (2.1×50 mm, 1.8 μm) column at 60° C. In Table 11, F % means means oral bioavailability (the total number for protein bound and free fraction).

In general, IC50 refers to the concentration that inhibits the measured activity by half. What is called bioavailability is dose-corrected exposure relative to a reference, in per cent.

T1 sequence (P61073 whole entry): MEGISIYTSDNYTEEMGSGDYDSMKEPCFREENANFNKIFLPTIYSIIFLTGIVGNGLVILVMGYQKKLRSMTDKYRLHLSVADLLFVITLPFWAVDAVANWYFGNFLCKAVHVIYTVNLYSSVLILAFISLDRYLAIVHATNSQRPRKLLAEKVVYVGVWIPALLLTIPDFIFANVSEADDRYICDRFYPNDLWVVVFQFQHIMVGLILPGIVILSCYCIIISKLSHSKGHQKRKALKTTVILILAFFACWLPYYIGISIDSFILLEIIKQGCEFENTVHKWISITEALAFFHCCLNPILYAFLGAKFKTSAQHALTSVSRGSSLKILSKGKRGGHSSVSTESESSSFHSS

As to `Cc1cccnc1[C@@H]1CCC[C@H](c2nc3cccc(N4CCN(C)CC4)c3[nH]2)N1C` (racemic) [I-3, 2-((2R,6S)-1-methyl-6-(3-methylpyridin-2-yl)piperidin-2-yl)-7-(4-methylpiperazin-1-yl)-1H-benzo[d]imidazole], the IC50 in data set [1] was in the range of 0.01 to 100 nM. Besides, in data set [2] (plasma), the clearance is 123 mL/min/kg, the bioavailability was found to be 37.6% and the half-life is 2.1 h. Besides, the AUC(0-t) in data set [2] (plasma, read-out: AUClast (P)) turned out to be 503 ng·h/mL. In data set [2] (brain, read-out: AUClast (b)), the AUC(0-t) is 1520 ng·h/mL.

As to `CN1CCN(c2cccc3nc([C@H]4CCC[C@@H](c5ncccc5Cl)N4)[nH]c23)CC1` (racemic) [I-122], the IC50 in data set [1] was 0.01 to 100 nM. Further, in data set [2] (brain/plasma (unbound), Fu (b)*AUC last (b)/Fu (p)*AUC last (p), Rat, read-out: Kp, uu (unbound brain/unbound plasma drug concentration ratio)), the Kp uu came out at 0.2. The Kp in data set [2] (brain/plasma, AUC last(b)/AUC last(p), Rat, read-out: Kp (brain/plasma drug concentration ratio)) worked out at 1.22. In addition, in data set [2] (plasma), the clearance was 31.7 mL/min/kg, the bioavailability came to 74.6% and the half-life is 5.31 h. Besides, the AUC(0-t) in data set [2] (plasma, read-out: AUClast (P)) came to 5440 ng·h/mL. For the same molecule, the AUC(0-t) in data set [2] (brain, read-out: AUClast (b)) is 6650 ng·h/mL.
